# Where two headings read alike, the source gives them in different places.
# Key:
# [1] = Example 1: capacity of additives to bind dissolved La and Ce (ICP-OES); format: physicochemical
# [2] = test system: duckweed (Lemna spp.); assay: Example 7: duckweed plant coverage (Canopeo) after herbicides with and without La/Ce; format: in vivo; settings: for Plant coverage, 3 Days Post: 3 days post treatment; for Plant coverage, 5 Days Post: 5 days post treatment; for Plant coverage, 7 Days Post: 7 days post treatment; for Plant coverage, Pre-Treat.: prior to treatments (baseline)
# [3] = Example 4: bound La and Ce over time and final pH (FIG. 1); format: physicochemical; settings: after the final samples (30 minutes), continuously stirred; control 5.6
# [4] = test system: duckweed; settings: 24 hours
# Protocol: In one exemplary experiment, 16-oz cups were filled with 400 mL of well water containing approximately 100 μg-P/L as phosphate. One cup was left as the no biomass control and approximately 8 g (±0.5 g) of actively growing duckweed were added to the other cups. One cup was left as a control and diquat (as Weedtrine® D) was added to each of the other cups at the following rates: 50 μg/L. 100 μg/L, 200 μg/L, and 300 μg/L. These samples were then placed under artificial lighting with a scheduled 16-hour light period and 8-hour dark period. […] Samples then were briefly stirred and allowed to sit under the lighting. After 2 hours, water samples were collected with a syringe, filtered with a 0.22 μm nylon filter, acidified with nitric acid, and analyzed for lanthanum and cerium concentration.
# [5] = test sample: La/Ce stock in 50 mL deionized water with 90-110 mg additive
compound,measurement,setting,value
"O.O=C([O-])C(=O)[O-].[K+].[K+] [Potassium oxalate (monohydrate), potassium oxalate (monohydrate)]",pH,[1],7
"O=[Si]([O-])[O-].[Na+].[Na+] [Sodium metasilicate (anhydrous), sodium metasilicate (anhydrous)]",pH,[1]; [5],13
copper ethanolamine [Copper ethanolamine only],% Change in plant coverage,[2]; 3 Days Post vs pre-treatment,−2%
same,% Change in plant coverage,[2]; 5 Days Post vs pre-treatment,−89%
same,% Change in plant coverage,[2]; 7 Days Post vs pre-treatment,−89%
same,"Plant coverage, 3 Days Post",[2],35%
same,"Plant coverage, 5 Days Post",[2],4%
same,"Plant coverage, 7 Days Post",[2],4%
same,"Plant coverage, Pre-Treat.",[2],35%
"[O]=[Mg] [Magnesium oxide, magnesium oxide]",pH,[1],7.5
same,pH of beaker,[3],8.0 (±0.1)
"C=CC(=O)[O-].[Na+] [Sodium acrylate, sodium acrylate]",pH,[1],7
fluridone [Fluridone only],% Change in plant coverage,[2]; 3 Days Post vs pre-treatment,−8%
same,% Change in plant coverage,[2]; 5 Days Post vs pre-treatment,−15%
same,% Change in plant coverage,[2]; 7 Days Post vs pre-treatment,−14%
same,"Plant coverage, 3 Days Post",[2],23%
same,"Plant coverage, 5 Days Post",[2],22%
same,"Plant coverage, 7 Days Post",[2],22%
same,"Plant coverage, Pre-Treat.",[2],25%
"[Na+].[OH-] [Sodium hydroxide, sodium hydroxide]",pH,[1],14
"O=C([O-])[O-].[Ca+2] [Calcium carbonate, calcium carbonate]",pH,[1],7.5
"O=C([O-])C(O)C(O)C(=O)[O-].[Na+].[Na+] (centres unmarked) [Sodium tartrate, sodium tartrate]",pH,[1],6.5
"c1cc[n+]2c(c1)-c1cccc[n+]1CC2 [Diquat only, diquat]",% Change in plant coverage,[2]; 3 Days Post vs pre-treatment,−75%
same,% Change in plant coverage,[2]; 5 Days Post vs pre-treatment,−89%
same,% Change in plant coverage,[2]; 7 Days Post vs pre-treatment,−92%
same,"Plant coverage, 3 Days Post",[2],10%
same,"Plant coverage, 5 Days Post",[2],4%
same,"Plant coverage, 7 Days Post",[2],3%
same,"Plant coverage, Pre-Treat.",[2],40%
same,Perceived injury,[4]; 50 μg/L diquat,20%
same,Perceived injury,[4]; 100 μg/L diquat,40%
same,Perceived injury,[4]; 200 μg/L diquat,50%
same,Perceived injury,[4]; 300 μg/L diquat,80%
"O=C([O-])CC(O)(CC(=O)[O-])C(=O)[O-].[Na+].[Na+].[Na+] [Sodium citrate, sodium citrate]",pH,[1],8
"Cc1nn(-c2cc(CC(Cl)C(=O)O)c(Cl)cc2F)c(=O)n1C(F)F (centres unmarked) [Carfentrazone only, carfentrazone]",% Change in plant coverage,[2]; 3 Days Post vs pre-treatment,13%
same,% Change in plant coverage,[2]; 5 Days Post vs pre-treatment,−29%
same,% Change in plant coverage,[2]; 7 Days Post vs pre-treatment,−17%
same,"Plant coverage, 3 Days Post",[2],39%
same,"Plant coverage, 5 Days Post",[2],24%
same,"Plant coverage, 7 Days Post",[2],29%
same,"Plant coverage, Pre-Treat.",[2],34%
"[Ca+2].[OH-].[OH-] [Calcium hydroxide, calcium hydroxide]",pH,[1],14
same,pH of beaker,[3],8.7 (±0.1)
"NC(=O)CC[C@H](N)C(=O)O [Glutamine, glutamine]",pH,[1]; [5],7

# Source: patent US12552694B2, “Use of trivalent metals to enhance aquatic pesticide efficacy, surface water, and sediment quality while minimizing risk to aquatic biota” (SePRO Corporation, priority 2022, dated 2026)
